Experimental data as given in PubChem BioAssay (NCI).
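Each compound was tested at five concentrations against cells in 96-well plates for 48 hours. TGI denotes the concentration required for complete inhibition of growth.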

Legend:
Test in all cases: growth of human tumour cells (NCI), 48 h
[1] = test system: TK-10 renal
[2] = test system: M14 melanoma
[3] = test system: NCI-H460 lung
[4] = test system: U251 CNS
[5] = test system: A549 NSCLC
[6] = test system: RPMI-8226 leukemia
[7] = test system: RXF 393 renal
[8] = test system: HCT-116 colon
[9] = test system: CCRF-CEM leukemia
[10] = test system: HT29 colon

Row | SMILES | TGI [1] [µM] | TGI [2] [µM] | TGI [3] [µM] | TGI [4] [µM] | TGI [5] [µM] | TGI [6] [µM] | TGI [7] [µM] | TGI [8] [µM] | TGI [9] [µM] | TGI [10] [µM]
1 | O=C1Nc2ccccc2SC1=C(C(=O)c1ccccc1)C(=O)c1ccccc1 | > 100 | > 100 | > 86.8 | > 100 | > 100 | > 100 | > 100 | > 100 | 77.4 | > 100
2 | CC1=NN2CCC(=O)N=C2S1 | > 100 | > 100 | > 100 | > 100 | > 100 | > 100 | > 100 | > 100 | > 100 | > 100
3 | CSc1c(C)n([O-])c2cc(Cl)c(Cl)cc2[n+]1=O | 35.6 | 45.6 | > 100 | 46.3 | > 100 | 34.9 | 45.6 | 32 | 4.58 | 33.7
4 | COC(=N)CCCl | > 100 | > 100 | > 100 | > 100 | > 100 | > 100 | > 100 | > 100 | > 100 | > 100
5 | CN1C/C(=C\c2cccs2)C(=O)/C(=C/c2cccs2)C1 | > 100 | 82.9 | > 100 | 30.7 | > 100 | 32.3 | 54.8 | 34.4 | 26.7 | 50.5
6 | COc1ccc(/C=C(/c2ccc(OC)cc2)c2c(Cl)cc(Cl)c(/C(=C\c3ccc(OC)cc3)c3ccc(OC)cc3)c2N=Nc2ccccc2)cc1 | > 100 | > 100 | > 100 | > 100 | > 100 | > 100 | > 100 | > 100 | > 100 | > 100
7 | NC(=S)NS(=O)(=O)c1ccc(Cl)cc1 | > 100 | > 100 | > 100 | > 100 | > 100 | > 100 | > 100 | > 100 | > 100 | > 100
8 | O=C(NNc1nc(-c2ccccc2)cs1)Nc1ccccc1 | 48.6 | > 100 | 50.6 | 58.1 | 48 | 44.2 | 36.8 | 58.5 | > 100 | 76.2
9 | CCCCOc1ccc(S(=O)(=O)/N=C(\NO)Nc2ccc(Cl)cc2)cc1 | 28.7 | 28.8 | 32.7 | 30.8 | 30.5 | 50.9 | 30.2 | 30.6 | 62.1 | 32.6
10 | COc1ccc(/N=N/C(=NNC(=O)c2ccc(C)cc2)c2ccc(N(C)C)cc2)cc1 | > 100 | > 100 | > 100 | > 100 | > 100 | > 70.9 | > 100 | > 100 | > 100 | > 89.8
11 | COc1cccc(N(CN2C(=O)CCC2OC)C(C)=O)c1 (stereo not given) | > 100 | > 100 | > 100 | > 100 | > 100 | > 100 | > 100 | > 100 | > 100 | > 100
12 | CCN(CCC#N)C(=O)Nc1ccccc1 | > 100 | > 100 | > 100 | > 100 | > 100 | > 100 | > 100 | > 100 | > 100 | > 100
13 | Cc1ccc(S(=O)(=O)NC(=O)NC(CC(=O)O)C(=O)O)cc1 (stereo not given) | > 100 | > 100 | > 100 | > 100 | > 100 | > 100 | > 100 | > 100 | > 100 | > 100
